What all share (type): in vivo
The subject of test [1] is mice. As to the kind of experiment: phenylbenzoquinone test according to Siegmund (analgesic activity, contractions of the abdomen). The following applies: for ED50: Mus musculus, po, mice; for analgesic activity in the Siegmund test: in words. From the text: (§1) The analgesic activity of the compounds of the present invention was studied by means of the tail-flick test according to D'Amour F. E. and Smith D. L., Journal of pharmacology and experimental therapeutics, 72, 74-79 (1941), the hot plate test according to Woolfe G. and MacDonald A. D., Journal of pharmacology and experimental therapeutics, 80, 300-307 (1944) and the phenylbenzoquinone test according to Siegmund E., Cadmus R. and Lu G, Proc. Soc. […]. Biol. Med. 95, 729-731 (1957).

Test [2] has as its system mice. As to the kind of experiment: four plates test according to Aron et al. (anxiolytic activity, number of shocks received). The following applies: for % number of shocks received: mice, N = 10; for anxiolytic activity in the 4 plates test: in words. From the text:
The anxiolytic activity was studied, for its part, by means of the four plates test according to Aron C., Simon P., Larousse C. and Boissier J. R., Neuropharmacology, 10, 459-469, (1971), the conflict test according to Vogel J. R., Beer B., Clody D. E., Physchopharmacol.

Test [3] relates to mice. As to the kind of experiment: hot plate test according to Woolfe and MacDonald (analgesic activity, licking time). The following applies: Mus musculus, ip.
From the text: as §1
A general note: Hot-plate and tail-flick tests time the reaction to a heat stimulus.

Test [4] relates to mice. Description: tail-flick test according to D'Amour and Smith (analgesic activity, reaction time). The following applies: for ED50: Mus musculus, ip, mice. An excerpt:
The analgesic activity of the compounds of the present invention was studied by means of the tail-flick test according to D'Amour F. E. and Smith D. L., Journal of pharmacology and experimental therapeutics, 72, 74-79 (1941), the hot plate test according to Woolfe G. and MacDonald A. D., Journal of pharmacology and experimental therapeutics, 80, 300-307 (1944) and the phenylbenzoquinone test according to Siegmund E., Cadmus R. and Lu G, Proc. Soc. Exptle. Biol. Med. 95, 729-731 (1957).
By way of example, the following table lists the results of the analgesic effects observed in mice for several representative products of the invention:
Note: The mean effective dose (ED50) was calculated:
in the tailflick test from the percentage variations in the reaction time
(in seconds) by comparison with the control batch.

Another test concerns rats. Description: Mac Millan punishment test, punishment operating conditioning (anxiolytic activity, number of punished responses). The following applies: for percentage variation in the number of punished responses: rats, N ≥ 9; for anxiolytic activity in the conflict test according to MacMillan: in words. From the text:
The anxiolytic activity was studied, for its part, by means of the four plates test according to Aron C., Simon P., Larousse C. and Boissier J. R., Neuropharmacology, 10, 459-469, (1971), the conflict test according to Vogel J. R., Beer B., Clody D. E., Physchopharmacol. 21, 1-7, (1971) and the punishment test according to Mac Millan D. E., J. Exp. Anal. Behav, 19, 133-145 (1973).
PUNISHMENT OPERATING CONDITIONING (RATS)
PERCENTAGE VARIATION IN THE NUMBER
OF PUNISHED RESPONSES (N ≥ 9)
S = Significant modification

The structures appear in SMILES notation.

Experimental findings from patent US4711885A, “N-(N'-phenylpiperazine)-alkyl triazole compounds having anxiolytic and analgesic properties” (Adir et Compagnie, priority 1985, dated 1987) are described below.

The ED50 is the dose at which the effect has come halfway, by size or by number of responders. A higher ED50 goes with a need for a large dose. Turning to `FC(F)(F)c1cccc(N2CCN(CCCc3nnc4n3C[C@H]3CCCC[C@H]3C4)CC2)c1` (relative stereo) [Example 3, Cis-10{γ-N-[N'(metatrifluoromethylphenyl)piperazine]n-propyl}-3,3a,4,5,6,7,7a,8-octahydrotriazolo[4,3-b]isoquinoline], the values for the ED50 with mice [1], in the test with mice [3] and in the test with mice [4] were 16 mg/kg, 19.8 mg/kg and > 50 mg/kg, respectively. The “% number of shocks received” value is reported as “+38%” in the test with mice [2] (2.5 mg/kg i.p.), “+44%” in the test on mice [2] (5 mg/kg i.p.), “+48%” with mice [2] (10 mg/kg i.p.) and 18% with mice [2] (25 mg/kg i.p.). For the same molecule, the “anxiolytic activity in the 4 plates test” value in the test with mice [2] is listed as “very significant anxiolytic activity”.

For `Clc1cccc(N2CCN(CCc3nnc4n3[C@H]3CCCC[C@@H]3CC4)CC2)c1` (relative stereo) [Example 12], the ED50 was found to be 25.7 mg/kg with mice [1], 25.3 mg/kg in the test with mice [3] and 30.7 mg/kg in the test on mice [4]. In addition, the “% number of shocks received” value with mice [2] (2.5 mg/kg i.p.) is on record as “+38%”; with mice [2] (5 mg/kg i.p.), “+15%”; in the test with mice [2] (10 mg/kg i.p.) it was “+20%”; with mice [2] (25 mg/kg i.p.), “+2%”. In addition, the “anxiolytic activity in the 4 plates test” value with mice [2] is given as “very significant anxiolytic activity”. The “percentage variation in the number of punished responses” value (shortened to “percentage variation in the number”) in the test on rats (2.5 mg/kg i.p.) is given as -33.5%; in the test with rats (5 mg/kg i.p.) it was -24%; in the test on rats (10 mg/kg i.p.), -51.3%; in the test on rats (20 mg/kg i.p.), -75%. The “activity in the tail-flick test” value in the test on mice [4] (50 mg/kg i.p., in words) is recorded as “active”.

Consider `FC(F)(F)c1cccc(N2CCN(CCc3nnc4n3C[C@H]3CCCC[C@H]3C4)CC2)c1` (relative stereo) [Example 16], for which the 50% effective dose (ED50) in the test on mice [1] is 17 mg/kg; with mice [3] it was 24.3 mg/kg; in the test on mice [4], > 50 mg/kg. Also, the “% number of shocks received” value in the test with mice [2] (2.5 mg/kg i.p.) is reported as -12%; with mice [2] (5 mg/kg i.p.) it was “+2%”; in the test with mice [2] (10 mg/kg i.p.), “+32%”; in the test on mice [2] (25 mg/kg i.p.) it was “+5%”. In the test with mice [2], the “anxiolytic activity in the 4 plates test” value is listed as “very significant anxiolytic activity”. In addition, the “percentage variation in the number” value with rats (2.5 mg/kg i.p.) is reported as “+5.4%”; with rats (5 mg/kg i.p.), “+42.2%”; in the test with rats (10 mg/kg i.p.), “+125.9%”; with rats (20 mg/kg i.p.), -60.7%. The “anxiolytic activity in the conflict test according to MacMillan” value in the test with rats is “very significant anxiolytic activity”.

Consider `Clc1cccc(N2CCN(CCCc3nnc4n3C[C@H]3CCCC[C@H]3C4)CC2)c1` (relative stereo) [Example 40], for which the median effective dose (ED50) is 7.5 mg/kg with mice [1], 53.9 mg/kg in the test with mice [3] and > 50 mg/kg in the test with mice [4]. Further, the “analgesic activity in the Siegmund test” value in the test on mice [1] is listed as “very significant analgesic activiy”.

In the case of `Clc1cccc(N2CCN(CCCc3nnc4n3[C@H]3CCCC[C@H]3CC4)CC2)c1` (relative stereo) [Example 42], the ED50 with mice [1] is 11.4 mg/kg; in the test with mice [4], > 50 mg/kg.

Take `Clc1cccc(N2CCN(CCc3nnc4n3CC3CCCCC43)CC2)c1` (stereo not drawn) [Example 2, 9-{β-N'-[N-(metachlorophenyl)piperazine]ethyl}-[7H]-2b,3,4,5,6,6a-hexahydrotriazolo[3,4-a]cyclohexa(c)pyrrole]: the figures for the ED50 with mice [1], in the test with mice [3] and in the test on mice [4] were 8.7 mg/kg, > 50 mg/kg and > 50 mg/kg, respectively. Besides, the “analgesic activity in the Siegmund test” value in the test on mice [1] is listed as “very significant analgesic activiy”.

With `FC(F)(F)c1cccc(N2CCN(CCc3nnc4n3CC3CCCC43)CC2)c1` (centres unmarked) [Example 17a], the ED50 was 5.82 mg/kg in the test with mice [1], 21.3 mg/kg in the test with mice [3] and > 50 mg/kg in the test with mice [4]. Moreover, the “% number of shocks received” value in the test on mice [2] (2.5 mg/kg i.p.) was “+18%”; with mice [2] (5 mg/kg i.p.), “+26%”; in the test with mice [2] (10 mg/kg i.p.), “+35%”; with mice [2] (25 mg/kg i.p.), “+61%”. Besides, the “anxiolytic activity in the 4 plates test” value with mice [2] was “very significant anxiolytic activity”. Also, the “percentage variation in the number” value in the test on rats (2.5 mg/kg i.p.) is “+47.8%”; with rats (5 mg/kg i.p.) it was “+33.6%”; with rats (10 mg/kg i.p.), “+42.6%”; in the test on rats (20 mg/kg i.p.), -70.3%. Besides, in the test with rats, the “anxiolytic activity in the conflict test according to MacMillan” value is listed as “very significant anxiolytic activity”.

Turning to `FC(F)(F)c1cccc(N2CCN(CCc3nnc4n3CC3CCCC43)CC2)c1` (centres unmarked) [Example 17b], the “% number of shocks received” value is reported as “+15%” in the test with mice [2] (2.5 mg/kg i.p.), “+34%” with mice [2] (5 mg/kg i.p.), “+53%” in the test on mice [2] (10 mg/kg i.p.) and “+27%” in the test with mice [2] (25 mg/kg i.p.). Further, the “anxiolytic activity in the 4 plates test” value in the test on mice [2] is given as “very significant anxiolytic activity”.

In the case of `FC(F)(F)c1cccc(N2CCN(CCc3nnc4n3CC3CCCCC43)CC2)c1` (centres unmarked) [Example 36], the ED50 is 4.3 mg/kg in the test with mice [1], 25 to 50 mg/kg with mice [3] and > 50 mg/kg in the test with mice [4]. Further, the “analgesic activity in the Siegmund test” value in the test on mice [1] is on record as “very significant analgesic activiy”. Further, the “% number of shocks received” value with mice [2] (2.5 mg/kg i.p.) is -12%; in the test with mice [2] (5 mg/kg i.p.), -4%; with mice [2] (10 mg/kg i.p.), -4%; in the test on mice [2] (25 mg/kg i.p.), “+39%”. Besides, the “anxiolytic activity in the 4 plates test” value in the test with mice [2] is reported as “very significant anxiolytic activity”.
